From patent US20100166848A1, “LIPOSOMAL FORMULATIONS FOR TREATING CANCER” (priority 2007, published 2010)

Tests used:
[1] = system: SW620 human colon carcinoma cell line; experiment: Antiproliferative MTT assay, 24 h exposure plus 48 h drug-free; format: cell-based; details: SW-620, SW620, 24 h exposure + 48 h drug-free medium, n=3, read-out: IC50 (5-FU concentration inhibiting 50% of cell growth)
Description: (§1) All experiments were carried out in the 5-FU-resistant, human colon carcinoma cell line SW620 (a.k.a CCL227) which overexpresses TS. Cells were maintained in RPMI supplemented with 10% fetal calf serum, […] and 1% kanamycin in a humidified CO2 incubator at 37° C. All experiments were performed in exponentially growing cells.
Cells were seeded at a density of 8×10^4 cells/well in 96-well plates. […] Next, drug was removed and the cells were allowed to grow in fresh medium for an additional 48 h. After 72 h of discontinuous exposure, cell viability was evaluated using the classic colorimetric MTT assay (Alley et al, 1988). The IC50 was defined as the 5-FU concentration inhibiting 50% of cell growth.

SW620 cells = experiment: 5-FU tumoral metabolism study with tritiated 5-FU; format: cell-based, human; details: SW620, 1 μM tritiated 5-FU, 3-6 h observation period
Description: as §1
Exponentially growing cells were exposed to 1 μM of tritiated 5-FU alone, combined with free d-Ino or as a liposomal preparation [5-FU+d-Ino]-L. After 3, 4 and 6 h exposure, cells were harvested, lysed into 70% methanol and cytosols were isolated by centrifugation (15000 rpm, 30 min) and stored at −80° C. until analysis. Separation of 5-FU and its main metabolites was achieved using a HP1090 HPLC system (Agilent, France) coupled to a Flo-One radioactive detector (Packard, France) and equipped with an RP18 column (Agilent, France), followed by elution with a K2HPO4-TBAN:Methanol gradient as described previously (Ciccolini et al, 2000b).

[2] = system: 5-FU-resistant SW620 human colorectal cell line; experiment: MTT testing of triple liposomal formulation, 72 continuous exposure; format: cell-based; details: SW-620
Source text: Cell sensitivity was estimated by calculating the respective IC50 of the different regimen (MTT testing, 72 continuous exposure).

colorectal cancer = details: monotherapy; cited from earlier work
SW620 tumor = experiment: In vivo efficacy, SW620 mouse xenograft model
Description: Four-week old, female Swiss, nude mice (n=5 per group, Charles River, Lyon, France) were subcutaneously inoculated with 1×10^6 SW620 cells on the right flank. […] Drugs were administered intraperitoneously on a 3×/week basis for three consecutive weeks (e.g., D1/D2/D3, D8/D9/D10 and D16/D17/D18). Tumor size was measured three times a week in three dimensions using Vernier calipers, and tumor weight (mg) was calculated using the following standard formula: mass=pi/6XlengthXwidthXheight (Waterhouse et al, 2005). Preliminary experiments performed with empty liposomes were conducted to confirm the absence of any in vivo antiproliferative activity. Animal weight was monitored as a marker of toxicity. Animals were euthanized whenever a 25% loss of initial weight was observed, or when tumors reached 2500 mg.

## O=c1[nH]cc(F)c(=O)[nH]1 [5-FU, 5-fluorouracil]
[1]
  IC50: 77 ± 6 µM
SW620 cells
  anti-TS FdUMP synthesis: 83 dpm/mg protein
[2]
  IC50: 62 µM
Colorectal cancer
  response rate: 20%
SW620 tumor; 5-FU 50 mg/kg, d-Ino 120 mg/kg IP, 3x/week for three weeks
  tumor size reduction at the conclusion of the study: 28%
SW620 tumor; as compared with untreated animals
  effect on tumor growth, in words: failed to reduce tumor growth
SW620 tumor; controls 16 days
  survival time: 20 days
SW620 tumor; mouse, in vivo
  increase in survival time compared to controls: 25%
